These results are taken from patent US20260053902A1, “COMPOSITIONS AND METHODS FOR REDUCING THE RATE OF TYPE 1 DIABETES” (Wisconsin Alumni Research Foundation, priority 2023, published 2026).

Molecules are shown by their SMILES.

The subject of one data set is NOD mouse. The data set can be described thus: Rate of type 1 diabetes and final blood glucose in treated female NOD/ShiLtJ mice. It is filed as in vivo. The settings on record: 20 μmol/kg IP in saline until age 58-61 days; age 34 weeks. The method, then:
Mouse care: NOD/ShiLtJ mice were from The Jackson Laboratory (Bar Harbor, ME, USA). Mice were housed under standard conditions (20-24° C., humidity 30-70%, lighting regimen 12 h light/12 h dark) in the University of Wisconsin Biomedical Research Model Service that is a specific pathogen free level 1 facility. […] Mice had access to acidified water or water containing a chemical and/or green tea ad libitum. All procedures were approved by the Research Animal Resources and Compliance veterinary care authority of the University of Wisconsin, Madison.
Mouse treatments: Mice were given chemicals by intraperitoneal injection and/or by gavage and/or in drinking water. Water-soluble chemicals were administered in a solution of sodium chloride adjusted to have a final osmolality of 0.5-0.9%. Lipid soluble chemicals were dissolved in olive oil, peanut oil, corn oil, Mazola® oil or canola oil.
Starting at age 2 to 5 days mice were given injections on every third or fourth day for 2 to 4 weeks (usually 2 to 2.5 weeks) for the first 4 or 6 injections, and thereafter twice per week on Mondays and Thursdays until up to age 100 days. In some instances, pregnant and nursing mice were given chemicals in drinking water starting at about the middle or late pregnancy continuing during nursing and also continuing for various lengths of time to the offspring with or without additional intraperitoneal injections of chemicals. In other instances, chemicals were delivered by intraperitoneal injection into pregnant mice and continued after delivery into the mouse pups. Chemicals, for example EGCG, were also delivered in drinking water starting before birth to the pregnant mouse mother and/or continuing and/or starting ad libitum to the mice after birth usually until at least 100 days of age or throughout life.
Chemicals given in distilled drinking water were green tea (as a source of EGCG and other catechins) (Lipton® 100% Natural Green Tea). […] The tea water was given alone and also in combination with acetaminophen 2 g/l in the same water.
In most cases nondiabetic mice were euthanized at 40-41 weeks of age. Statistical significances of the frequencies of diabetes in the mice receiving test treatments were compared to the rates of diabetes in mice receiving control treatments and were calculated with the Chi square test and with the Chi square test with Yate's correction.
In most of the studies, control solutions and the other treatments were administered to the mice until they were 100 days old. Mice without diabetes were euthanized at 40-41 weeks of age. Diabetic mice were euthanized when their blood glucose levels reached a level that met the criteria for diabetes.
Administration of water-soluble chemicals serving as controls to NOD mice: Control solutions were the vehicles in which chemicals were dissolved. Control solutions were usually administered to mouse litters from the same shipments as the litters receiving test chemicals and/or litters from the same parents as the litters receiving test chemicals and were administered during the same month and year as treatments to the litters receiving test treatments. Statistical probabilities between the rates of diabetes in the litters receiving test treatments were compared to litters simultaneously receiving control treatments.

The subject of a further data set is mice. The settings on record: mouse, in vivo. The source says: Intraperitoneal injections of water-soluble chemicals were given in normal saline (0.9% sodium chloride).

On to `COC1=C(OC)C(=O)C(C)=CC1=O` [CoQ0, 2,3-dimethoxy-5-methyl-1,4-benzoquinone, reference compound], for which, in the data set with NOD mouse, the “Diabetes (%)” value amounted to 83%, the “Final Blood Glucose (mean ± SE) diabetic” value is 649 ± 53 mg glucose/dl and the “Final Blood Glucose (mean ± SE) non-diabetic” value is recorded as 183 ± 28 mg glucose/dl. For the same molecule, the toxicity result in the data set with mice is listed as “toxicity to the mice”.
